Experimental data taken from PubChem BioAssay (NCI).
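Method: 48-hour compound exposure of cells in 96-well plates, five concentrations, linear interpolation of endpoints. TGI: concentration producing complete growth inhibition.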 Where a SMILES comes first, the peptide text is derived from it. The star is where a group is joined. Boc = CC(C)(C)OC(=O)*; Bn = c1ccc(C*)cc1

Key:
Assay in all cases: NCI anticancer screen, dose series, 48 h
HCC-2998 colon = tested on: HCC-2998 colon
SK-MEL-5 melanoma = tested on: SK-MEL-5 melanoma
HCT-15 colon = tested on: HCT-15 colon
NCI-H460 lung = tested on: NCI-H460 lung
M14 melanoma = tested on: M14 melanoma
ACHN renal = tested on: ACHN renal
NCI-H522 lung = tested on: NCI-H522 lung
DU-145 prostate = tested on: DU-145 prostate
OVCAR-8 ovarian = tested on: OVCAR-8 ovarian
UACC-62 melanoma = tested on: UACC-62 melanoma

Structure (SMILES)	TGI (HCC-2998 colon)	TGI (SK-MEL-5 melanoma)	TGI (HCT-15 colon)	TGI (NCI-H460 lung)	TGI (M14 melanoma)	TGI (ACHN renal)	TGI (NCI-H522 lung)	TGI (DU-145 prostate)	TGI (OVCAR-8 ovarian)	TGI (UACC-62 melanoma)
NC(N)=NS(=O)(=O)c1ccc(NNc2c3ccccc3nc3c(C(=O)Nc4ccc(S(=O)(=O)Nc5ncccn5)cc4)cccc23)cc1	> 100 µM	> 100 µM	> 100 µM	> 100 µM	89.7 µM	> 100 µM	45.9 µM	> 100 µM	> 100 µM	48.2 µM
CC1(C)/C(=N\NC(N)=O)C2CCC1C2 (centres undefined)	–	> 100 µM	> 100 µM	> 100 µM	> 100 µM	> 100 µM	> 100 µM	> 100 µM	> 100 µM	> 100 µM
COC(=O)c1c(O)ccc2c1c1c(n2Cc2cc(OC)cc(OC)c2)C(=O)c2ccccc2C1	–	> 100 µM	> 100 µM	> 100 µM	> 100 µM	–	–	> 100 µM	> 100 µM	> 100 µM
COc1cccc(CCNC(=O)Cc2ccccc2CCO)c1	> 100 µM	> 100 µM	> 100 µM	> 100 µM	> 100 µM	> 100 µM	> 100 µM	> 100 µM	> 100 µM	> 100 µM
Cc1ccc(-c2c(C#N)c(-c3ccc(C)cc3)n(NS(=O)(=O)c3ccccc3)c(=O)c2C#N)cc1	> 100 µM	31.2 µM	> 100 µM	> 100 µM	> 100 µM	> 100 µM	> 100 µM	–	> 100 µM	> 100 µM
Cc1ccc(S(=O)(=O)c2[nH]cc(/C(=C\C3CCCCC3)[N+](=O)[O-])c2C2CCCCC2)cc1	0.485 µM	1.21 µM	0.46 µM	2.99 µM	1.15 µM	0.619 µM	0.541 µM	1.49 µM	2.78 µM	0.625 µM
O=c1oc2ccccc2cc1-c1cc2ccccn2c1	–	> 100 µM	> 100 µM	> 100 µM	> 100 µM	> 100 µM	> 100 µM	> 100 µM	> 100 µM	> 100 µM
O=[N+]([O-])C[C@@]12O[C@]3(O)C4C5CC(C6C5C3C61)C42 (some centres undefined)	–	> 100 µM	> 100 µM	> 100 µM	> 100 µM	> 100 µM	> 100 µM	> 100 µM	> 100 µM	> 100 µM
O=C(N/N=C(\c1ccccc1)c1ccccn1)NC1CCCCC1	> 100 µM	> 100 µM	> 100 µM	> 100 µM	> 100 µM	> 100 µM	> 100 µM	> 100 µM	–	> 100 µM
COc1cc2c(cc1OC)C(CC1=C(c3ccccc3)CN3CCc4cc(OC)c(OC)cc4C3C1)NCC2 (centres undefined)	22.7 µM	31.3 µM	36.1 µM	37.9 µM	46.3 µM	42.3 µM	–	–	36.8 µM	36.3 µM
CO/N=C(\C(=O)OC(=NC1CCCCC1)NC1CCCCC1)c1csc(NC(c2ccccc2)(c2ccccc2)c2ccccc2)n1	> 10 µM	> 10 µM	> 10 µM	> 10 µM	> 10 µM	> 10 µM	> 10 µM	> 10 µM	> 10 µM	–
O=C(O)CCCc1nc2c(n1Cc1ccccc1)C(=O)c1ccccc1C2=O	> 100 µM	–	> 100 µM	> 100 µM	20.6 µM	> 100 µM	> 100 µM	> 100 µM	> 100 µM	> 100 µM
CCOC(=O)Nc1[nH]cc(-c2ccccc2)c1C#N	–	> 100 µM	> 100 µM	–	> 100 µM	> 100 µM	> 100 µM	> 100 µM	> 100 µM	> 100 µM
Cc1ccc(/C=N/Nc2cc(C)c3cccc(C)c3n2)s1	22.7 µM	23.9 µM	17.4 µM	–	18.2 µM	68.5 µM	16.9 µM	> 100 µM	26.9 µM	43.6 µM
CC1(C)[C@@H](Cn2ccc(=O)[nH]c2=O)CC[C@@]1(C)CO	> 100 µM	> 100 µM	> 100 µM	–	> 100 µM	> 100 µM	–	> 100 µM	–	> 100 µM
O=C1C2SC34c5c2c2ccccc2n5CCC3CCCN14 (centres undefined)	–	> 100 µM	> 100 µM	–	> 100 µM	> 100 µM	> 100 µM	> 100 µM	> 100 µM	> 100 µM
COC(=O)/C=C(\C(=O)OC)C1C(=O)Oc2c(C)c(=O)c3ccccc3n21 (centres undefined)	–	> 100 µM	> 100 µM	> 100 µM	> 100 µM	–	> 100 µM	> 100 µM	> 100 µM	> 100 µM
O=C1COc2cccnc2N1CCCCO	–	> 100 µM	> 100 µM	> 100 µM	–	> 100 µM	> 100 µM	> 100 µM	–	> 100 µM

Structure (SMILES)	TGI (HCC-2998 colon)	TGI (SK-MEL-5 melanoma)	TGI (HCT-15 colon)	TGI (NCI-H460 lung)	TGI (M14 melanoma)	TGI (ACHN renal)	TGI (NCI-H522 lung)	TGI (DU-145 prostate)	TGI (OVCAR-8 ovarian)	TGI (UACC-62 melanoma)
CN=C(n1ccnc1)n1ccnc1	> 100 µM	> 100 µM	> 100 µM	> 100 µM	> 100 µM	–	> 100 µM	> 100 µM	> 100 µM	> 100 µM
COC(=O)C(CC(C)C)NC(=O)C(C)NC(=O)C(Cc1ccc(OCc2ccccc2)cc1)NC(=O)C(COCc1ccccc1)NC(=O)OC(C)(C)C (centres undefined) (Boc-S(Bn)Y(Bn)AL-OMe; configuration not given here)	–	> 100 µM	–	> 100 µM	> 100 µM	> 100 µM	> 100 µM	> 100 µM	> 100 µM	> 100 µM
O=C1c2ccccc2C(=O)c2c(NCC(O)CO)ccc(NCC(O)CO)c21 (centres undefined)	> 100 µM	> 100 µM	> 100 µM	> 100 µM	–	> 100 µM	> 100 µM	> 100 µM	> 100 µM	> 100 µM
COc1cccc(C(=O)Oc2ccc(OS(=O)(=O)c3ccc(C)cc3)cc2)c1C#N	–	31.2 µM	> 100 µM	> 100 µM	> 100 µM	> 100 µM	> 100 µM	> 100 µM	> 100 µM	> 100 µM
CCCNC(=O)NNC(=O)c1c[nH]c2nc(C)ccc2c1=O	–	> 100 µM	> 100 µM	> 100 µM	> 100 µM	> 100 µM	> 100 µM	> 100 µM	> 100 µM	> 100 µM
CC1(C)C(C#N)C1C1=C(N2CCOCC2)[C@]2(C)C(OC(=O)c3ccccc3)CC[C@@H]2C1 (some centres undefined)	> 100 µM	> 100 µM	> 100 µM	> 100 µM	> 100 µM	> 100 µM	> 100 µM	–	> 100 µM	> 100 µM
C=CCCON(C(=O)OC(C)(C)C)C(C)(C)C	–	> 100 µM	> 100 µM	> 100 µM	> 100 µM	> 100 µM	> 100 µM	> 100 µM	> 100 µM	> 100 µM
CC(=O)Nc1ccc(N=Nc2c(O)c(S(=O)(=O)O)cc3cc(S(=O)(=O)O)ccc23)cc1	–	> 100 µM	> 100 µM	–	> 100 µM	> 100 µM	> 100 µM	> 100 µM	> 100 µM	> 100 µM
CC(=O)OC(OC(C)=O)c1ccc2ccc3cccc4ccc1c2c34	24.5 µM	32.8 µM	> 100 µM	39.6 µM	61 µM	65.8 µM	–	45.8 µM	> 100 µM	27.3 µM
N#C[C@H](c1ccccn1)c1nc2ccccc2nc1Cl	> 100 µM	> 100 µM	> 100 µM	> 100 µM	> 100 µM	> 100 µM	> 100 µM	–	> 100 µM	> 100 µM
CC(=O)N=C1N(/C=C2\C(=O)Oc3ccccc3C2=O)C(=O)/C(=C/c2cccc(Cl)c2Cl)N1C	31.4 µM	32.2 µM	32.5 µM	–	34.4 µM	34.3 µM	> 100 µM	> 100 µM	44.3 µM	> 100 µM
CCCC(=O)NC(NC1CCCCC1)(C(=O)OCC)C(F)(F)F (centres undefined)	> 100 µM	> 100 µM	> 100 µM	> 100 µM	> 100 µM	> 100 µM	> 100 µM	> 100 µM	> 100 µM	–
COc1cc(OC)c2nc(C)c(CCCl)c(Cl)c2c1	> 100 µM	–	> 100 µM	> 100 µM	> 100 µM	> 100 µM	> 100 µM	> 100 µM	> 100 µM	> 100 µM
CCCCCCNc1n[nH]c(=O)c2c1nnn2Cc1ccccc1	> 100 µM	> 100 µM	> 100 µM	> 100 µM	> 100 µM	> 100 µM	–	> 100 µM	> 100 µM	–
COc1cc(C2c3cc4c(cc3OC(N3CCCCC3)C2C)OCO4)cc(OC)c1O (centres undefined)	32.7 µM	19.8 µM	> 57.1 µM	23.3 µM	> 69.4 µM	23.1 µM	22.2 µM	49.6 µM	36.7 µM	–
N#Cc1n[nH]n(-c2ccc(Br)cc2)c1=O	> 100 µM	–	> 100 µM	–	> 100 µM	> 100 µM	> 100 µM	> 100 µM	> 100 µM	> 100 µM
O=C(O)C(O)C(O)C(O)C(O)c1nc2ccccc2s1 (centres undefined)	–	74.1 µM	82.9 µM	31.6 µM	45.7 µM	33.2 µM	27.1 µM	31.2 µM	37.4 µM	28.8 µM
